Assay results from patent publication US9399666B2, “Inhibiting interaction between the HIF-1ALPHA and p300/CBP with hydrogen bond surrogate-based helices” (New York University, priority 2008, dated 2016).
Where two headings read alike, the source gives them in different places. Peptide text beside a SMILES is read from it.

Legend:
circular dichroism = details: 10 mM phosphate buffered saline (par. 0128, each peptide; pH given only for 22 and 25, Fig 6B), pH 7.4, ns °C
MDA-MB-231-HRE-Luc cells = format: cell-based
Protocol: MDA-MB-231-HRE-Luc cells were maintained in high glucose Dulbecco's Modified Eagle's Medium (“DMEM”) supplemented with 10% fetal bovine serum and 0.4 g/L Geneticin (G418 sulfate, RPI Corporation). Cells were plated in 24-well dishes (BD Falcon) at a density of […] using 1 mL of a 6.5×10^4 cell/mL suspension. […] Cells were incubated for 6 hours at 37° C. in a humidified atmosphere with 5% CO2. Hypoxia was induced by adding desferoxamine mesylate (DFO, Sigma) to a final concentration of 300 μM, and cells were incubated for an additional 18 hours. Whole cell lysates were isolated by washing the cells twice with ice cold PBS and then adding 150 μL of Cell Culture Lysis Reagent (“CCLR,” Promega). Lysate was collected, centrifuged at 13,000 rpm at 4° C., aliquoted, and stored at −80° C. Luciferase assays were conducted according to the manufacturer's instructions (Promega) using a Turner TD-20e Luminometer. Relative light intensity measurements were normalized by performing a Bradford assay to determine the protein content of the lysate used in the luciferase assay. Briefly, 50 μL of cell lysate/luciferase assay reagent mix was added to 200 μL of Bradford reagent and 750 μL of Millipore water in a 1.5 mL cuvette. Protein standards were created in the range of 1 μg/mL to 10 μg/mL with the appropriate amount of a 1 mg/mL BSA solution. Absorbance was measured at 595 nm using a DU-800 spectrophotometer. The experiments were carried out in triplicate with the error bars calculated as standard error of the mean.

p300 = p300 (Homo sapiens, UniProt Q09472); experiment: Affinity for p300 by isothermal titration calorimetry; format: binding; details: for Kd: isothermal titration calorimetry, p300, read-out: Kd (ITC); for Affinity for p300 (in words): ITC
From the text: Helix αA of HIF-1α C-TAD, shown in FIG. 1A and FIG. 1C, is critical for the interaction between the CH1 domain and HIF-1α, because mutation of its residues or hydroxylation of Asn803 is known to disrupt this complex and inhibit HIF-1α mediated transcription (Freedman et al., “Structural Basis for Recruitment of CBP/p300 by Hypoxia-inducible Factor-1α,” Proc. Nat'l Acad. Sci. USA 99:5367-72 (2002); Dames et al., “Structural Basis for Hif-1α/CBP Recognition in the Cellular Hypoxic Response,” Proc. Nat'1 Acad. Sci. USA 99:5271-6 (2002). Development of HBS helices as potential inhibitors of VEGF transcription was begun by mimicking the aA helix region of HIF-1. This helix consists of eight residues, […] (SEQ ID NO: 111), and features three residues, Asp-Cys-Glu, critical for binding with p300/CBP. Several linear peptides and their HBS α-helix analogs were designed to gauge the potential of these molecules to inhibit VEGF transcription in cell culture. Each unconstrained peptide and HBS helix was synthesized using the procedures described in (Dimartino et al., “Solid-phase Synthesis of Hydrogen-bond Surrogate-derived α-Helices,” Org. Lett. 7:2389-92 (2005); Chapman & Arora, “Optimized Synthesis of Hydrogen-bond Surrogate Helices: Surprising Effects of Microwave Heating on the Activity of Grubbs Catalysts,” Org. Lett. 8:5825-8 (2006)). The percent helicity of each peptide was determined using circular dichroism spectroscopy in 10 mM phosphate buffered saline as described in (Wang et al., “Evaluation of Biologically Relevant Short α-Helices Stabilized by a Main-chain Hydrogen-bond Surrogate,” J. Am. Chem. Soc. 128:9248-56 (2006)). The affinity of each peptide for p300 was measured by isothermal titration calorimetry analysis (Wiseman et al., “Rapid Measurement of Binding Constants and Heats of Binding Using a New Titration calorimeter,” Anal. Biochem. 179:131-7 (1989); Freire et al., “Isothermal Titration calorimetry,” Anal. Chem. 62:A950-A959 (1990); Chervenak & Toone, “Calorimetric Analysis of the Binding of Lectins with Overlapping Carhohydrate-binding Ligand Specificities,” Biochemistry 34:5685-95 (1995); Aki et al., “Competitive Binding of Drugs to the Multiple Binding Sites on Human Serum Albumin. A calorimetric Study,” J Thermal Anal. calorim. 57:36170 (1999); Graziano et al., “Linkage of Proton Binding to the Thermal Unfolding of Sso7d from the Hyperthermophilic Archaebacterium Sulfolobus solfataricus,” Int'l J. Biol. Macromolecules 26:45-53 (1999); Pluschke & Mutz, “Use of Isothermal Titration calorimetry in the Development of Molecularly Defined Vaccines,” J Thermal Anal. calorim. 57:377-88 (1999); Corbell et al., “A Comparison of Biological and calorimetric Analyses of Multivalent Glycodendrimer Ligands for Concanavalin A,” Tetrahedron-Asymmetry 11:95-111 (2000)). The ability of each peptide to downregulate VEGF transcription in cell culture was evaluated by […] quantitative RT-PCR, as described above. The cytotoxicity of each peptide was determined by monitoring cellular growth and population doubling in the presence of individual peptides at 1μM concentration.

[1] = Percent helicity by circular dichroism spectroscopy; format: physicochemical; details: 10 mM phosphate buffered saline
From the text: Helix αA of HIF-1α C-TAD, shown in FIG. 1A and FIG. 1C, is critical for the interaction between the CH1 domain and HIF-1α, because mutation of its residues or hydroxylation of Asn803 is known to disrupt this complex and inhibit HIF-1α mediated transcription (Freedman et al., “Structural Basis for Recruitment of CBP/p300 by Hypoxia-inducible Factor-1α,” Proc. Nat'l Acad. Sci. USA 99:5367-72 (2002); Dames et al., “Structural Basis for Hif-1α/CBP Recognition in the Cellular Hypoxic Response,” Proc. Nat'1 Acad. Sci. USA 99:5271-6 (2002). Development of HBS helices as potential inhibitors of VEGF transcription was begun by mimicking the aA helix region of HIF-1. This helix consists of eight residues, […] (SEQ ID NO: 111), and features three residues, Asp-Cys-Glu, critical for binding with p300/CBP. Several linear peptides and their HBS α-helix analogs were designed to gauge the potential of these molecules to inhibit VEGF transcription in cell culture. Each unconstrained peptide and HBS helix was synthesized using the procedures described in (Dimartino et al., “Solid-phase Synthesis of Hydrogen-bond Surrogate-derived α-Helices,” Org. Lett. 7:2389-92 (2005); Chapman & Arora, “Optimized Synthesis of Hydrogen-bond Surrogate Helices: Surprising Effects of Microwave Heating on the Activity of Grubbs Catalysts,” Org. Lett. 8:5825-8 (2006)). The percent helicity of each peptide was determined using circular dichroism spectroscopy in 10 mM phosphate buffered saline as described in (Wang et al., “Evaluation of Biologically Relevant Short α-Helices Stabilized by a Main-chain Hydrogen-bond Surrogate,” J. Am. Chem. Soc. 128:9248-56 (2006)). The affinity of each peptide for p300 was measured by isothermal titration calorimetry analysis (Wiseman et al., “Rapid Measurement of Binding Constants and Heats of Binding Using a New Titration calorimeter,” Anal. Biochem. 179:131-7 (1989); Freire et al., “Isothermal Titration calorimetry,” Anal. Chem. 62:A950-A959 (1990); Chervenak & Toone, “Calorimetric Analysis of the Binding of Lectins with Overlapping Carhohydrate-binding Ligand Specificities,” Biochemistry 34:5685-95 (1995); Aki et al., “Competitive Binding of Drugs to the Multiple Binding Sites on Human Serum Albumin. A calorimetric Study,” J Thermal Anal. calorim. […] The ability of each peptide to downregulate VEGF transcription in cell culture was evaluated by […] quantitative RT-PCR, as described above. The cytotoxicity of each peptide was determined by monitoring cellular growth and population doubling in the presence of individual peptides at 1μM concentration.

Row | SMILES | Kd (p300) [nM] | % Helicity [1] [%] | Affinity for p300 (in words) (p300) | helicity (circular dichroism) [%] | % Transcription inhibition in cell culture (Luc) (MDA-MB-231-HRE-Luc cells; 1000 nM) | Inhibition of VEGF transcription in cell culture (in words) (MDA-MB-231-HRE-Luc cells) | % Transcription inhibition in cell culture (Luc) (MDA-MB-231-HRE-Luc cells; luciferase assay, 1 μM peptide) [%]
1 | CC(C)[C@H](NC(=O)[C@H](CCC(=O)O)NC(=O)[C@H](CS)NC(=O)[C@H](CC(=O)O)NC(=O)[C@H](Cc1ccc(O)cc1)N1CC=CCCC(=O)N[C@@H]([C@@H](C)O)C(=O)N[C@@H](C)C1=O)C(=O)N[C@@H](CC(N)=O)C(=O)N[C@@H](C)C(N)=O [Compound 20] | 540 | – | – | 44 | 0 ± 5 (Luc) % | – | –
2 | CC(C)[C@H](NC(=O)[C@H](CCC(=O)O)NC(=O)[C@@H](NC(=O)[C@H](CC(=O)O)NC(=O)[C@H](Cc1ccc(O)cc1)N1CC=CCCC(=O)N[C@@H]([C@@H](C)O)C(=O)N[C@@H](C)C1=O)C(C)C)C(=O)N[C@@H](CC(N)=O)C(=O)N[C@@H](C)C(N)=O [Compound 21] | 690 ± 60 | – | – | 16 | – | – | –

Second part, led by results:

Row | Kd (p300) [nM] | % Helicity [1] [%] | Affinity for p300 (in words) (p300) | SMILES | helicity (circular dichroism) [%] | % Transcription inhibition in cell culture (Luc) (MDA-MB-231-HRE-Luc cells; 1000 nM) | Inhibition of VEGF transcription in cell culture (in words) (MDA-MB-231-HRE-Luc cells) | % Transcription inhibition in cell culture (Luc) (MDA-MB-231-HRE-Luc cells; luciferase assay, 1 μM peptide) [%]
3 | 420 ± 35 | – | – | C[C@H](NC(=O)[C@H](CC(N)=O)NC(=O)[C@H](Cc1ccc(O)cc1)NC(=O)[C@H](CCC(=O)O)NC(=O)[C@H](CS)NC(=O)[C@H](CC(=O)O)NC(=O)[C@H](C)N1CC=CCCC(=O)N[C@@H]([C@@H](C)O)C(=O)N[C@@H](C)C1=O)C(=O)N[C@@H](CCCNC(=N)N)C(N)=O [Compound 22] | 53 | – | – | –
4 | – | 14 | bound p300 with significant affinities | CC(=O)N[C@H](C(=O)N[C@@H](CO)C(=O)N[C@@H](Cc1ccc(O)cc1)C(=O)N[C@@H](CC(=O)O)C(=O)N[C@@H](CS)C(=O)N[C@@H](CCC(=O)O)C(=O)N[C@H](C(=O)N[C@@H](CC(N)=O)C(=O)N[C@@H](C)C(N)=O)C(C)C)[C@@H](C)O [Compound 23] (Ac-TSYDCEVNA-NH2) | 14 | – | failed to inhibit VEGF transcription in cell culture | 10 ± 5
5 | – | 15 | bound p300 with significant affinities | CC(=O)N[C@H](C(=O)N[C@@H](C)C(=O)N[C@@H](Cc1ccc(O)cc1)C(=O)N[C@@H](CC(=O)O)C(=O)N[C@@H](CS)C(=O)N[C@@H](CCC(=O)O)C(=O)N[C@H](C(=O)N[C@@H](CC(N)=O)C(=O)N[C@@H](C)C(N)=O)C(C)C)[C@@H](C)O [Compound 24] (Ac-TAYDCEVNA-NH2) | 15 | – | failed to inhibit VEGF transcription in cell culture | 15 ± 5
